Among the data in BindingDB's records for doi:10.1111/j.1747-0285.2009.00852.x (University of Jordan, 2009) are IC50 values, retold here.

For this assay, the target named is Reverse transcriptase (Human immunodeficiency virus 2, UniProt Q06347). Nature of the assay: In Vitro Enzyme Assay. The following applies: pH 7.8; 37 °C. The protocol: The reverse transcriptase inhibitory activity of compound was evaluated by a non-radioactive colorimetric assay method. This procedure uses RT to synthesize DNA starting from the template/primer hybridpoly (A) x oligo (dT)15 and avoids the use of radio-labeled nucleotides.
Chain of Reverse transcriptase (Q06347 whole entry): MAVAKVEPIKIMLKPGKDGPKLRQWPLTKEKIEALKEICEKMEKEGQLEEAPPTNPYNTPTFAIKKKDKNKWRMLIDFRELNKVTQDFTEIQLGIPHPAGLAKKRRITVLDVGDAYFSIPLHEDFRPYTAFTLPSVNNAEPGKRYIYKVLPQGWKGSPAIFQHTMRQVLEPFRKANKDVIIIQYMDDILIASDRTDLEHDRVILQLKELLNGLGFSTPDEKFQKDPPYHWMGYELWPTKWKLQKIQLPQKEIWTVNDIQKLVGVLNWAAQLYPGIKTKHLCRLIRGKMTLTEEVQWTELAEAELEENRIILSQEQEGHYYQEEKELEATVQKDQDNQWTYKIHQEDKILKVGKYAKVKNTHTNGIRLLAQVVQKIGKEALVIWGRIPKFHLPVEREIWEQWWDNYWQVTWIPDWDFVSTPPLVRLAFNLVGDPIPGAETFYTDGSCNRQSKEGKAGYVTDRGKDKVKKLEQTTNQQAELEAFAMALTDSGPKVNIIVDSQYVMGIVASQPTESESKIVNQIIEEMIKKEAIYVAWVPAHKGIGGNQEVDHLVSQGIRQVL
What is called IC50 is the concentration that gives 50% inhibition. High values mean lower potency, low ones higher potency. `Cc1ccc(S(=O)(=O)Oc2ccc(Cl)cc2Cl)cc1` [NCI Code, 4179] had an IC50 of 87.1 µM.

Compound `CCCC(=O)Oc1ccc(C(C)(C)C)cc1Br` [NCI Code, 6927] returned an IC50 of 335 µM.

In turn, `CCCCN(CCCC)C(=O)c1ccc(Cl)cc1Cl` [NCI Code, 6050] registered an IC50 of 31.3 µM.

The compound `CCCCCCc1nc2c([nH]1)c(=O)n(C)c(=O)n2C` [NCI Code, 14129] displayed an IC50 of 18.9 µM.

The compound `Cc1ccnc2c1NC(=O)c1cccnc1N2C1CC1` [BI-RG-587] showed an IC50 of 4.2 µM.
